Data from patent US20110190503A1, “Thiazolopyridin-2-yloxy-phenyl and thiazolopyrazin-2-yloxy-phenyl amines as modulators of leukotriene A4 hydrolase” (Janssen Pharmaceutical NV, priority 2008, published 2011).
Where a name gives a salt, the structure may show the parent alone.

Target: T1, recombinant human LTA4 hydrolase (rhLTA4H) (Homo sapiens, UniProt P09960)
T1 construct: made in house; host or cells: Spodoptera frugiperda (Sf-9) cells, recombinant baculovirus (pFastBac1)
T1 sequence (P09960 1-611): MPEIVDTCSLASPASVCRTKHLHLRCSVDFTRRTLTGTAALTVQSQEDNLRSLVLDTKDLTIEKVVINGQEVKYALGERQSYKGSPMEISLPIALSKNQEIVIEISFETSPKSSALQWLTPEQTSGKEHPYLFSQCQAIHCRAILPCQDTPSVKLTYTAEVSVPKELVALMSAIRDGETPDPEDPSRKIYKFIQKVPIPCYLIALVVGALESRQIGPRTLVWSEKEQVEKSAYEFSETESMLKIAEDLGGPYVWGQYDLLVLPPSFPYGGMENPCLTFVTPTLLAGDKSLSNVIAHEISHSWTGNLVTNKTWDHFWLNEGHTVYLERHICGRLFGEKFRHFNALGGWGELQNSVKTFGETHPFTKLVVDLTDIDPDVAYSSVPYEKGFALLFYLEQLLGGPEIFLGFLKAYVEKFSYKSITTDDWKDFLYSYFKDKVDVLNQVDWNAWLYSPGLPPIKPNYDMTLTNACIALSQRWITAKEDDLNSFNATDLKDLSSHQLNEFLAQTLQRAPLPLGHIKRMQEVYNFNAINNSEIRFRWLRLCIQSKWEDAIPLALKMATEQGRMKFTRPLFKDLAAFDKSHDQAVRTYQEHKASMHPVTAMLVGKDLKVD
Test: Recombinant human LTA4 hydrolase assay for LTA4 hydrolase inhibitor activity
Assay type: biochemical
Conditions: rhLTA4H, LTA4 substrate, LTB4 by immunoassay; single determination or average; read-out: IC50
How it was run: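 LTB4 formed from LTA4 substrate (free acid from the methyl ester) was quantified by enzyme immunoassay after a 30 min rt reaction. Enzyme was 10 ng Sf-9-expressed human LTA4 hydrolase, pre-incubated 10 min with compound.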

SMILES | IC50 [µM]
CC(=O)N1[C@@H]2CC[C@H]1CN(CCc1ccc(Oc3nc4nccc(C)c4s3)cc1)C2 [Example 209, meso-2-(4-{2-[8-Acetyl-3,8-diazabicyclo[3.2.1]oct-3-yl]ethyl}phenoxy)-7-methyl[1,3]thiazolo[4,5-b]pyridine] | 0.157
NC(=O)N1C[C@H]2CC[C@@H](C1)N2CCOc1ccc(Oc2nc3ncccc3s2)cc1 [Example 211, meso-8-{2-[4-([1,3]Thiazolo[4,5-b]pyridin-2-yloxy)phenoxy]ethyl}-3,8-diazabicyclo[3.2.1]octane-3-carboxamide] | 0.024
CS(=O)(=O)N1C[C@H]2CC[C@@H](C1)N2CCOc1ccc(Oc2nc3ncccc3s2)cc1 [Example 213, meso-2-(4-{2-[3-(Methylsulfonyl)-3,8-diazabicyclo[3.2.1]oct-8-yl]ethoxy}phenoxy)[1,3]thiazolo[4,5-b]pyridine] | 0.034
O=C(c1ccccn1)N1CCN(Cc2ccc(Oc3nc4ccncc4s3)cc2)CC1 [Example 217, 2-(4-{[4-(Pyridin-2-ylcarbonyl)piperazin-1-yl]methyl}phenoxy)[1,3]thiazolo[5,4-c]pyridine] | 2.51
c1cc2sc(Oc3ccc(CCN4CCCC4)cc3)nc2cn1 [Example 221, 2-[4-(2-Pyrrolidin-1-ylethyl)phenoxy][1,3]thiazolo[4,5-c]pyridine] | 0.181
Clc1cnc2nc(Oc3ccc(CCN4CCC(N5CCCCC5)CC4)cc3)sc2c1 [Example 223, 1′-(2-{4-[(6-Chloro[1,3]thiazolo[4,5-b]pyridin-2-yl)oxy]phenyl}ethyl)-1,4′-bipiperidine] | 0.563
CN1CCN(C(=O)C2CCN(Cc3ccc(Oc4nc5ccncc5s4)cc3)CC2)CC1 [Example 227, 2-[4-({4-[(4-Methylpiperazin-1-yl)carbonyl]piperidin-1-yl}methyl)phenoxy][1,3]thiazolo[5,4-c]pyridine] | 0.748
Cc1cnc2nc(Oc3ccc(CN4CCC(C(=O)N5CCNCC5)CC4)cc3)sc2c1 [Example 229, 6-Methyl-2-(4-{[4-(piperazin-1-ylcarbonyl)piperidin-1-yl]methyl}phenoxy)[1,3]thiazolo[4,5-b]pyridine hydrochloride] | 1.09
NC(=O)N1CC2CN(CCc3ccc(Oc4nc5ccncc5s4)cc3)CC2C1 (stereo not shown) [Example 246, 5-{2-[4-([1,3]Thiazolo[5,4-c]pyridin-2-yloxy)phenyl]ethyl}hexahydropyrrolo[3,4-c]pyrrole-2(1H)-carboxamide] | 0.331
CC(=O)N1CC(CN(C)Cc2ccc(Oc3nc4ncc(Cl)cc4s3)cc2)C1 [Example 247, 1-(1-Acetylazetidin-3-yl)-N-{4-[(6-chloro[1,3]thiazolo[4,5-b]pyridin-2-yl)oxy]benzyl}-N-methylmethanamine] | 0.033
CS(=O)(=O)N[C@@H]1C[C@H]2CC[C@@H](C1)N2Cc1ccc(Oc2nc3ccncc3s2)cc1 [Example 249, meso-N-{(3-exo)-8-[4-([1,3]Thiazolo[5,4-c]pyridin-2-yloxy)benzyl]-8-azabicyclo[3.2.1]oct-3-yl}methanesulfonamide] | 0.141
CCOC(=O)CN(Cc1ccccc1)Cc1ccc(Oc2nc3ncccc3s2)cc1 [Example 273, Ethyl N-benzyl-N-[4-([1,3]thiazolo[4,5-b]pyridin-2-yloxy)benzyl]glycinate] | 0.176
O=C(O)CN(Cc1ccccc1)Cc1ccc(Oc2nc3ncccc3s2)cc1 [Example 274, N-Benzyl-N-[4-([1,3]thiazolo[4,5-b]pyridin-2-yloxy)benzyl]glycine] | 0.919
Cc1ccnc2sc(Oc3ccc(CN4CCCCC4)cc3)nc12 [Example 280, 7-Methyl-2-[4-(piperidin-1-ylmethyl)phenoxy][1,3]thiazolo[5,4-b]pyridine] | > 10
CC(=O)N1C[C@@H]2C[C@H]1CN2Cc1ccc(Oc2nc3c(C)ccnc3s2)cc1 [Example 281, 2-(4-{[(1S,4S)-5-Acetyl-2,5-diazabicyclo[2.2.1]hept-2-yl]methyl}phenoxy)-7-methyl[1,3]thiazolo[5,4-b]pyridine] | > 10

More lines, now with the values ahead:

IC50 [µM] | SMILES
0.006 | NC(=O)N1[C@@H]2CC[C@H]1CN(CCc1ccc(Oc3nc4ncccc4s3)cc1)C2 [Example 210, meso-3-{2-[4-([1,3]Thiazolo[4,5-b]pyridin-2-yloxy)phenyl]ethyl}-3,8-diazabicyclo[3.2.1]octane-8-carboxamide hydrochloride]
0.018 | CC(=O)N1[C@@H]2CC[C@H]1CN(CCc1ccc(Oc3nc4ncccc4s3)cc1)C2 [Example 212, meso-2-(4-{2-[8-Acetyl-3,8-diazabicyclo[3.2.1]oct-3-yl]ethyl}phenoxy)[1,3]thiazolo[4,5-b]pyridine]
0.003 | CC(=O)N1[C@@H]2CC[C@H]1C[C@H](NCCc1ccc(Oc3nc4ncccc4s3)cc1)C2 [Example 214, meso-(3-exo)-8-Acetyl-N-{2-[4-([1,3]thiazolo[4,5-b]pyridin-2-yloxy)phenyl]ethyl}-8-azabicyclo[3.2.1]octan-3-amine]
0.021 | CC(=O)N1[C@@H]2CC[C@H]1C[C@H](NCCOc1ccc(Oc3nc4ncccc4s3)cc1)C2 [Example 215, meso-(3-exo)-8-Acetyl-N-{2-[4-([1,3]thiazolo[4,5-b]pyridin-2-yloxy)phenoxy]ethyl}-8-azabicyclo[3.2.1]octan-3-amine hydrochloride]
0.06 | COCC(=O)NC1CCN(Cc2ccc(Oc3nc4ncc(C)cc4s3)cc2)CC1 [Example 216, 2-Methoxy-N-(1-{4-[(6-methyl[1,3]thiazolo[4,5-b]pyridin-2-yl)oxy]benzyl}piperidin-4-yl)acetamide]
0.212 | CC(C)(C)C1CCN(Cc2ccc(Oc3nc4ncc(Cl)cc4s3)cc2)CC1 [Example 218, 2-{4-[(4-tert-Butylpiperidin-1-yl)methyl]phenoxy}-6-chloro[1,3]thiazolo[4,5-b]pyridine]
0.276 | CCC(=O)NC1CCN(Cc2ccc(Oc3nc4cccnc4s3)cc2)CC1 [Example 219, N-{1-[4-([1,3]Thiazolo[5,4-b]pyridin-2-yloxy)benzyl]piperidin-4-yl}propanamide]
0.109 | Cc1cnc2nc(Oc3ccc(CN4CCC(NC(=O)c5cccs5)CC4)cc3)sc2c1 [Example 220, N-(1-{4-[(6-Methyl[1,3]thiazolo[4,5-b]pyridin-2-yl)oxy]benzyl}piperidin-4-yl)thiophene-2-carboxamide]
4.85 | CN1CCN(Cc2ccc(Oc3nc4cnccc4s3)cc2)CC1=O [Example 224, 1-Methyl-4-[4-([1,3]thiazolo[4,5-c]pyridin-2-yloxy)benzyl]piperazin-2-one]
0.021 | O=C(O)CCN1CCN(CCc2ccc(Oc3nc4ncccc4s3)cc2)CC1 [Example 225, 3-(4-{2-[4-([1,3]Thiazolo[4,5-b]pyridin-2-yloxy)phenyl]ethyl}piperazin-1-yl)propanoic acid hydrochloride]
1.21 | CC(=O)N1CCCN(Cc2ccc(Oc3nc4ccncc4s3)cc2)CC1 [Example 226, 2-{4-[(4-Acetyl-1,4-diazepan-1-yl)methyl]phenoxy}[1,3]thiazolo[5,4-c]pyridine]
0.135 | CC(=O)N(C)[C@@H]1C[C@H]2CC[C@@H](C1)N2Cc1ccc(Oc2nc3cccnc3s2)cc1 [Example 228, meso-N-Methyl-N-{(3-exo)-8-[4-([1,3]thiazolo[5,4-b]pyridin-2-yloxy)benzyl]-8-azabicyclo[3.2.1]oct-3-yl}acetamide]
1.16 | c1cncc(OC2CCN(Cc3ccc(Oc4nc5ccncc5s4)cc3)CC2)c1 [Example 248, 2-(4-{[4-(Pyridin-3-yloxy)piperidin-1-yl]methyl}phenoxy)[1,3]thiazolo[5,4-c]pyridine]
0.14 | CN(C)C1CCN(Cc2ccc(Oc3nc4ncccc4s3)cc2)CC1 [Example 259, N,N-Dimethyl-1-[4-([1,3]thiazolo[4,5-b]pyridin-2-yloxy)benzyl]piperidin-4-amine]
0.293 | CN(CCN1CCCCC1)Cc1ccc(Oc2nc3ncccc3s2)cc1 [Example 271, N-Methyl-2-piperidin-1-yl-N-[4-([1,3]thiazolo[4,5-b]pyridin-2-yloxy)benzyl]ethanamine]
> 10 | Cc1ccnc2sc(Oc3ccc(CN4CCC(C(N)=O)CC4)cc3)nc12 [Example 286, 1-{4-[(7-Methyl[1,3]thiazolo[5,4-b]pyridin-2-yl)oxy]benzyl}piperidine-4-carboxamide]
